Publication PMC8578206, “Green Leaf Volatile-Burst in Selaginella moellendorffii” (Frontiers in Plant Science, 2021)

Target: T1, SmHPL1b (Selaginella moellendorffii, UniProt D8RF82)
T1 construct: gene CYP74L1; full ORF from genomic DNA in pET100/D-TOPO (tag kept), E. coli BL21 Star (DE3) membrane fraction
Assay: decrease in absorbance at […] nm
Format: biochemical
Conditions: E. coli membrane fraction, MES-KOH pH 6.0, 25 °C (methods); optimum pH 5.5

T1 sequence (D8RF82 entry or part of it): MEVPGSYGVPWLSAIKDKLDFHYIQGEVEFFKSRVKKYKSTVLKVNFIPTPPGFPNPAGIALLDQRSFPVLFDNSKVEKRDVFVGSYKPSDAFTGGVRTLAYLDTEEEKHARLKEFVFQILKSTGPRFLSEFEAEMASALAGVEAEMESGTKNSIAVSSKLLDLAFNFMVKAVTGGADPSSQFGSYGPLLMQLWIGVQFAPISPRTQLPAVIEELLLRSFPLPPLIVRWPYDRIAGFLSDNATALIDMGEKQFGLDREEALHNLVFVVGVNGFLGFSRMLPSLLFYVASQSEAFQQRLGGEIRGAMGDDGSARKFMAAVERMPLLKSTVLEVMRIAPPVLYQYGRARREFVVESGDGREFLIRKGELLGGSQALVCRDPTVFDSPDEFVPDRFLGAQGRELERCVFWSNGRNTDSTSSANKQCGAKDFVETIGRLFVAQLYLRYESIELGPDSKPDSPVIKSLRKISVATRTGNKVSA

- Km: 31.4 µM
SMILES: CC/C=C\C[C@@H](/C=C/C=C\CCCCCCCC(=O)O)OO [13HPOT, (9Z,11E,15Z)-13-hydroperoxyoctadeca-9,11,15-trienoic acid]
